Measurements: patent publication US9650395B2, “Antibacterial compounds and methods for use” (PTC Therapeutics, Inc., priority 2011, dated 2017)
Read-outs that look alike come from different tables or passages of the source.

Columns and labels:
[1] = system: super sensitive Gram-negative Escherichia coli (E. coli) BAS849; experiment: Antibacterial activity, microbroth dilution MIC, E. coli BAS849; assay type: cell-based; conditions: Escherichia coli; E. coli BAS849, microbroth dilution; read-out: MIC, BAS849
[2] = system: control Gram-negative E. coli 25922 strain; experiment: Antibacterial activity, microbroth dilution MIC, E. coli 25922; assay type: cell-based, Escherichia coli; conditions: Escherichia coli; E. coli 25922, microbroth dilution; read-out: MIC, 25922
[3] = system: Gram-positive Staphylococcus aureus (S. aureus) 29213; experiment: Antibacterial activity, microbroth dilution MIC, S. aureus 29213; assay type: cell-based; conditions: Staphylococcus aureus; S. aureus 29213, microbroth dilution; read-out: MIC, 29213
[4] = system: quinolone resistant E. coli LZ3111; experiment: Antibacterial activity, MIC, quinolone resistant E. coli LZ3111; assay type: cell-based, Escherichia coli; conditions: Escherichia coli, read-out: MIC, LZ3111
Excerpt: (§1) The antibacterial activity from a microbroth dilution method may be presented as the minimum inhibitory concentration (MIC in […]). The MIC value is the lowest concentration of a drug which prevents macroscopically visible bacterial growth under test conditions.
Mutations in these regions are known to confer a high level resistance to the quinolone class of antibiotics.

[5] = system: E. coli ELZ4000 (MDR clinical isolate); experiment: Antibacterial activity, MIC, MDR E. coli ELZ4000; assay type: cell-based, Escherichia coli; conditions: Escherichia coli; E. coli ELZ4000, MDR clinical isolate; read-out: MIC ELZ4000
[6] = system: E. coli ELZ4251 (MDR clinical isolate); experiment: Antibacterial activity, MIC, MDR E. coli ELZ4251; assay type: cell-based, Escherichia coli; conditions: Escherichia coli, E. coli ELZ4251, MDR clinical isolate; read-out: MIC ELZ4251
[7] = system: Acinetobacter baumannii (A. baumannii) BAA747; experiment: Antibacterial activity, MIC, A. baumannii BAA747; assay type: cell-based; conditions: Acinetobacter baumannii; A. baumannii BAA747; read-out: MIC BAA747
[8] = system: Klebsiella pneumoniae (K. pneumoniae) 35657; experiment: Antibacterial activity, MIC, K. pneumoniae 35657; assay type: cell-based; conditions: Klebsiella pneumoniae
[9] = system: resistant A. baumannii MXX2240 (MDR clinical isolate); experiment: Antibacterial activity, MIC, resistant A. baumannii MXX2240; assay type: cell-based, Acinetobacter baumannii; conditions: Acinetobacter baumannii, read-out: MIC MMX2240
[10] = system: resistant K. pneumoniae MXX1232 (MDR clinical isolate); experiment: Antibacterial activity, MIC, resistant K. pneumoniae MXX1232; assay type: cell-based, Klebsiella pneumoniae; conditions: Klebsiella pneumoniae, read-out: MIC MMX1232
[11] = system: Pseudomonas aeruginosa (P. aeruginosa) 27853; experiment: Antibacterial activity, MIC, P. aeruginosa 27853; assay type: cell-based; conditions: Pseudomonas aeruginosa, P. aeruginosa 27853; read-out: MIC 27853
Excerpt: as §1
Antibacterial activity of test compounds against the Gram-negative bacterium Pseudomonas aeruginosa (P. aeruginosa) 27853 is shown in Table 5.

[12] = system: Haemophilus influenzae (H. influenzae) 49247; experiment: Antibacterial activity, MIC, H. influenzae 49247; assay type: cell-based; conditions: Haemophilus influenzae; H. influenzae 49247; read-out: MIC 49247
Procedure, shortened: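 A microbroth dilution method gave the minimum inhibitory concentration for each compound against H. influenzae 49247, a Gram-negative bacterium. MIC means the smallest concentration of drug at which no macroscopically visible bacterial growth appears under the conditions of the test.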

[13] = system: Moraxella catarrhalis (M. catarrhalis) 25238; experiment: Antibacterial activity, MIC, M. catarrhalis 25238; assay type: cell-based; conditions: Moraxella catarrhalis, M. catarrhalis 25238; read-out: MIC 25238
[14] = system: Neisseria meningitidis (N. meningitidis) 13090; experiment: Antibacterial activity, MIC, N. meningitidis 13090; assay type: cell-based; conditions: Neisseria meningitidis; N. meningitidis 13090; read-out: MIC 13090
[15] = resistant A. baumannii MMX2240, MDR clinical isolate
[16] = resistant K. pneumoniae MMX1232, MDR clinical isolate

Measured: MIC

CCc1cc(C(=O)O)c(=O)[nH]c1-c1ccc(N2C[C@@H]3[C@H](C2)[C@H]3NCc2ccccc2)cc1 [Cpd 178, 6-{4-[(1R,5S,6s)-6-(benzylamino)-3-azabicyclo[3.1.0]hex-3-yl]phenyl}-5-ethyl-2-oxo-1,2-dihydropyridine-3-carboxylic acid]
12.5 to 150 µg/mL: [3] | [4] | [5] | [6] | [9]; [15] | [10]; [16] | [11]
1 to 3.5 µg/mL: [7]
< 1 µg/mL: [1] | [2] | [8]

CCc1c(-c2ccc(N3C[C@H]4CCN[C@H]4C3)cc2)[nH]c(=O)c(C(=O)O)c1O.Cl [Cpd 246, 5-ethyl-6-{4-[(3aR,6aR)-hexahydropyrrolo[3,4-b]pyrrol-5(1H)-yl]phenyl}-4-hydroxy-2-oxo-1,2-dihydropyridine-3-carboxylic acid hydrochloride]
1 to 3.5 µg/mL: [2] | [8] | [12] | [14]
3.5 to 12.5 µg/mL: [6] | [13]
< 1 µg/mL: [1]
12.5 to 150 µg/mL: [3] | [5] | [7] | [9]; [15] | [10]; [16] | [11]

CCc1c(-c2ccc(N3CCC(CNC)C3)cc2)[nH]c(=O)c(C(=O)O)c1O.Cl (stereo not drawn) [Cpd 254, 5-ethyl-4-hydroxy-6-(4-{3-[(methylamino)methyl]pyrrolidin-1-yl}phenyl)-2-oxo-1,2-dihydropyridine-3-carboxylic acid hydrochloride]
3.5 to 12.5 µg/mL: [4] | [6] | [7] | [8] | [11]
12.5 to 150 µg/mL: [3] | [5] | [9]; [15] | [10]; [16] | [12] | [13]
< 1 µg/mL: [1]
1 to 3.5 µg/mL: [2] | [14]

CCc1c(-c2ccc(N3C[C@H]4CC[C@@H](NC)[C@H]4C3)cc2)[nH]c(=O)c(C(=O)O)c1O.Cl [Cpd 256, 5-ethyl-4-hydroxy-6-{4-[(3aR,4R,6aS)-4-(methylamino)hexahydrocyclopenta[c]pyrrol-2(1H)-yl]phenyl}-2-oxo-1,2-dihydropyridine-3-carboxylic acid hydrochloride]
3.5 to 12.5 µg/mL: [3] | [6] | [12]
< 1 µg/mL: [1] | [14]
12.5 to 150 µg/mL: [5] | [7] | [9]; [15] | [10]; [16] | [11]
1 to 3.5 µg/mL: [2] | [4] | [8] | [13]

CCc1c(-c2ccc(N3CCC(N4CCCC4)C3)cc2)[nH]c(=O)c(C(=O)O)c1O.Cl (stereo not drawn) [Cpd 257, 6-[4-(1,3′-bipyrrolidin-1′-yl)phenyl]-5-ethyl-4-hydroxy-2-oxo-1,2-dihydropyridine-3-carboxylic acid hydrochloride]
< 1 µg/mL: [1] | [2] | [14]
1 to 3.5 µg/mL: [6] | [7] | [8] | [12] | [13]
12.5 to 150 µg/mL: [3] | [9]; [15] | [10]; [16] | [11]
3.5 to 12.5 µg/mL: [4] | [5]

CCc1c(-c2ccc(C3=CCN(C)CC3)cc2)[nH]c(=O)c(C(=O)O)c1O [Cpd 342, 5-ethyl-4-hydroxy-6-(4-(1-methyl-1,2,3,6-tetrahydropyridin-4-yl)phenyl)-2-oxo-1,2-dihydropyridine-3-carboxylic acid]
12.5 to 150 µg/mL: [3] | [7] | [9] | [10] | [11]
3.5 to 12.5 µg/mL: [2] | [4] | [8]
1 to 3.5 µg/mL: [1]

CCc1c(-c2ccc(CCN(C)C)cc2)[nH]c(=O)c(C(=O)O)c1O [Cpd 343, 6-(4-(2-(dimethylamino)ethyl)phenyl)-5-ethyl-4-hydroxy-2-oxo-1,2-dihydropyridine-3-carboxylic acid]
12.5 to 150 µg/mL: [2] | [3] | [4] | [7] | [8] | [9]; [15] | [10]; [16] | [11]
3.5 to 12.5 µg/mL: [1]
